Assay results taken from ChEMBL document CHEMBL3509421, “FDA drug approval package for diclofenac acid (NDA 22-202 CP, Ref ID: 3374276)”.

Assays:
[1] = Mean Cmax of diclofenac following single oral dosing of 25 mg diclofenac potassium soft gelatin capsule in healthy human; format: ADME, organism-based; set-up: dietary status Fasting, dose 25 mg, dosed compound id 2.46815e+06, dosed compound name Diclofenac potassium, gender Mixed, regimen Single, route oral, study doses 25/50 mg; details: both, plasma
[2] = Mean AUC (0-infinity) value of diclofenac following single oral dosing of 50 mg Cataflam tablet in healthy human; format: ADME, organism-based; set-up: time infinity, dietary status Fasting, dose 50 mg, dosed compound id 2.46815e+06, dosed compound name Diclofenac potassium, gender Mixed, regimen Single, route oral; details: both, plasma, read-out: AUC (0-infinity)
clinical [3] = details: both, human, plasma, po, 50 mg
[4] = (§1) Mean terminal elimination half-life of diclofenac potassium following oral dosing of Cataflam 50 mf tablet in healthy human; details: both, plasma, 50 mg
clinical [5] = details: both, human, plasma, po, 50 mg; remark: listed apart in the source
[6] = Geometric mean for AUC (0-infinity) of diclofenac following single oral dosing of 35 mg Zorvolex capsule in healthy human; format: ADME, organism-based; set-up: time infinity, dietary status Fed, dose 35 mg, dosed compound id 2.46815e+06, dosed compound name Diclofenac, gender Mixed, regimen Single, route oral; details: both, plasma, read-out: AUC (0-infinity)
[7] = Mean AUC(0-infinity) of diclofenac following single oral dosing of 25 mg diclofenac potassium soft gelatin capsule in healthy human; format: ADME, organism-based; set-up: time infinity, dietary status Fasting, dose 25 mg, dosed compound id 2.46815e+06, dosed compound name Diclofenac potassium, gender Mixed, regimen Single, route oral, study doses 25/50 mg; details: both, plasma, read-out: AUC (0-infinity)
[8] = Mean AUC (0-t) value of diclofenac following single oral dosing of 50 mg Cataflam tablet in healthy human; format: ADME, organism-based; set-up: dietary status Fasting, dose 50 mg, dosed compound id 2.46815e+06, dosed compound name Diclofenac potassium, gender Mixed, regimen Single, route oral; details: both, plasma
[9] = Mean maximum Tmax value of diclofenac potassium following oral dosing of PRO-513 50 mg sachet in healthy human; format: ADME, organism-based; set-up: dietary status Fasting, dose 50 mg, dosed compound id 2.46815e+06, dosed compound name Diclofenac potassium, gender Mixed, regimen Single, route oral, study doses 50 mg; details: both, plasma, read-out: Maximum Tmax
[10] = Minimum tmax of diclofenac following single oral dosing of 18 mg Zorvolex capsule in healthy human; format: ADME, organism-based, Plasma; set-up: dietary status Fasting, dose 18 mg, dosed compound id 2.46815e+06, dosed compound name Diclofenac, gender Mixed, regimen Single, route oral; details: in vivo
[11] = Mean AUC(0-t) of diclofenac following single oral dosing of 25 mg diclofenac potassium soft gelatin capsule in healthy human; format: ADME, organism-based; set-up: dietary status Fasting, dose 25 mg, dosed compound id 2.46815e+06, dosed compound name Diclofenac potassium, gender Mixed, regimen Single, route oral, study doses 25/50 mg; details: both, plasma
[12] = Mean AUC (0-infinity) value of diclofenac following single oral dosing of 35 mg Zorvolex capsule in healthy human; format: ADME, organism-based; set-up: time infinity, dietary status Fed, dose 35 mg, dosed compound id 2.46815e+06, dosed compound name Diclofenac, gender Mixed, regimen Single, route oral; details: both, plasma, read-out: AUC (0-infinity)
[13] = Mean Tmax of diclofenac following single oral dosing of 50 mg diclofenac potassium soft gelatin capsule in healthy human; format: ADME, organism-based; set-up: dietary status Fasting, dose 50 mg, dosed compound id 2.46815e+06, dosed compound name Diclofenac potassium, gender Mixed, regimen Single, route oral, study doses 25/50 mg; details: both, plasma
[14] = Median tmax of diclofenac following single oral dosing of 50 mg Cataflam tablet in healthy human; format: ADME, organism-based; set-up: dietary status Fasting, dose 50 mg, dosed compound id 2.46815e+06, dosed compound name Diclofenac potassium, gender Mixed, regimen Single, route oral; details: both, plasma, read-out: Median Tmax
[15] = Maximum tmax of diclofenac following single oral dosing of 50 mg Cataflam tablet in healthy human; format: ADME, organism-based, Plasma; set-up: dietary status Fed, dose 50 mg, dosed compound id 2.46815e+06, dosed compound name Diclofenac potassium, gender Mixed, regimen Single, route oral; details: in vivo
[16] = Mean Cmax of diclofenac potassium following oral dosing of Cataflam 50 mf tablet in healthy human; format: ADME, organism-based; set-up: dietary status Fasting, dose 50 mg, dosed compound id 2.46815e+06, dosed compound name Diclofenac potassium, gender Mixed, regimen Single, route oral, study doses 50 mg; details: both, plasma, 50 mg
[17] = Mean Cmax value of diclofenac following single oral dosing of 50 mg Cataflam tablet in healthy human; format: ADME, organism-based; set-up: dietary status Fed, dose 50 mg, dosed compound id 2.46815e+06, dosed compound name Diclofenac potassium, gender Mixed, regimen Single, route oral; details: both, plasma
[18] = as §1; details: both, plasma, 50 mg; remark: listed apart in the source
[19] = Geometric mean for AUC (0-infinity) of diclofenac following single oral dosing of 50 mg Cataflam tablet in healthy human; format: ADME, organism-based, Plasma; set-up: time infinity, dietary status Fasting, dose 50 mg, dosed compound id 2.46815e+06, dosed compound name Diclofenac potassium, gender Mixed, regimen Single, route oral; details: in vivo
[20] = Mean minimum Tmax value of diclofenac potassium following oral dosing of Cataflam 50 mf tablet in healthy human; format: ADME, organism-based; set-up: dietary status Fed, dose 50 mg, dosed compound id 2.46815e+06, dosed compound name Diclofenac potassium, gender Mixed, regimen Single, route oral, study doses 50 mg; details: both, plasma, 50 mg, read-out: Minimum Tmax
[21] = Mean Tmax of diclofenac following single oral dosing of 50 mg Cataflam in healthy human; format: ADME, organism-based; set-up: dietary status Fasting, dose 50 mg, dosed compound id 2.46815e+06, dosed compound name Diclofenac potassium, gender Mixed, regimen Single, route oral, study doses 50 mg; details: both, plasma
clinical [22] = details: both, human, plasma, po, 18 mg
[23] = Mean AUC (0-t) of diclofenac following single oral dosing of 25 mg diclofenac potassium softgel capsule in healthy human; format: ADME, organism-based; set-up: dietary status Fed, dose 25 mg, dosed compound id 2.46815e+06, dosed compound name Diclofenac potassium, gender Mixed, regimen Single, route oral, study doses 25/50 mg; details: both, plasma
[24] = Mean Tmax of diclofenac following single oral dosing of 50 mg diclofenac potassium softgel capsule in healthy human; format: ADME, organism-based; set-up: dietary status Fed, dose 50 mg, dosed compound id 2.46815e+06, dosed compound name Diclofenac potassium, gender Mixed, regimen Single, route oral, study doses 25/50 mg; details: both, plasma
[25] = Mean Cmax of diclofenac following single oral dosing of 25 mg diclofenac potassium softgel capsule in healthy human; format: ADME, organism-based; set-up: dietary status Fasting, dose 25 mg, dosed compound id 2.46815e+06, dosed compound name Diclofenac potassium, gender Mixed, regimen Single, route oral, study doses 25/50 mg; details: both, plasma
[26] = Mean Kel of diclofenac potassium following oral dosing of Cataflam 50 mf tablet in healthy human; format: ADME, organism-based; set-up: dietary status Fasting, dose 50 mg, dosed compound id 2.46815e+06, dosed compound name Diclofenac potassium, gender Mixed, regimen Single, route oral, study doses 50 mg; details: both, plasma, 50 mg
[27] = Maximum tmax of diclofenac following single oral dosing of 18 mg Zorvolex capsule in healthy human; format: ADME, organism-based, Plasma; set-up: dietary status Fasting, dose 18 mg, dosed compound id 2.46815e+06, dosed compound name Diclofenac, gender Mixed, regimen Single, route oral; details: in vivo
clinical [28] = details: both, human, plasma, po, 50 mg; remark: listed apart in the source
[29] = Mean apparent terminal elimination rate constant value of diclofenac following single oral dosing of 35 mg Zorvolex capsule in healthy human; format: ADME, organism-based, Plasma; set-up: dietary status Fed, dose 35 mg, dosed compound id 2.46815e+06, dosed compound name Diclofenac, gender Mixed, regimen Single, route oral; details: in vivo
[30] = Mean AUC(0-t) of diclofenac potassium following oral dosing of Cataflam 50 mf tablet in healthy human; format: ADME, organism-based; set-up: dietary status Fed, dose 50 mg, dosed compound id 2.46815e+06, dosed compound name Diclofenac potassium, gender Mixed, regimen Single, route oral, study doses 50 mg; details: both, plasma, 50 mg
[31] = Mean AUC(0-t) of diclofenac potassium following oral dosing of PRO-513 50 mg sachet in healthy human; format: ADME, organism-based; set-up: dietary status Fasting, dose 50 mg, dosed compound id 2.46815e+06, dosed compound name Diclofenac potassium, gender Mixed, regimen Single, route oral, study doses 50 mg; details: both, plasma
clinical [32] = details: both, human, plasma, po, 35 mg

## O=C(O)Cc1ccccc1Nc1c(Cl)cccc1Cl [DICLOFENAC]
[1]
  Cmax: 1120 ng/mL
[2]
  AUC(0-inf): 1330 ng·h/mL
Clinical [3]
  half-life: 1.84 h
[4]
  half-life: 1.29 h
Clinical [5]
  half-life: 2.27 h
[6]
  AUC(0-inf): 852 ng·h/mL
[7]
  AUC(0-inf): 603 ng·h/mL
[8]
  AUC(0-t): 1320 ng·h/mL
[9]
  Tmax: 0.67 h
[10]
  Minimum Tmax: 0.5 h
[11]
  AUC(0-t): 579 ng·h/mL
[12]
  AUC(0-inf): 876 ng·h/mL
[13]
  Tmax: 0.48 h
[14]
  Tmax: 1 h
[15]
  Maximum Tmax: 4.53 h
[16]
  Cmax: 1160 ng/mL
[17]
  Cmax: 713 ng/mL
[18]
  half-life: 1.56 h
[19]
  AUC (0-infinity): 1301.961 ng·h/mL
[20]
  Tmax: 0.33 h
[21]
  Tmax: 0.93 h
Clinical [22]
  half-life: 1.87 h
[23]
  AUC(0-t): 680 ng·h/mL
[24]
  Tmax: 1.28 h
[25]
  Cmax: 1160 ng/mL
[26]
  k el: 0.000164 s⁻¹
[27]
  Maximum Tmax: 4.5 h
Clinical [28]
  half-life: 1.45 h
[29]
  lambda-z: 0.371 h⁻¹
[30]
  AUC(0-t): 1060 ng·h/mL
[31]
  AUC(0-t): 1240 ng·h/mL
Clinical [32]
  half-life: 2.24 h
